Measurements reported in patent US20260158009A1 (GENZYME CORPORATION, priority 2023, published 2026).

What was measured:
[1] = molecular target: T1, hRIPK1 (aa 1-375) fusion protein (Homo sapiens, UniProt Q13546); assay: ADP-Glo kinase assay: catalytic activity of RIPK1 (autophosphorylation, conversion of ATP to ADP); assay type: biochemical
T1 construct: hRIPK1 (aa 1-375) fusion protein
T1 sequence (Q13546 1-375): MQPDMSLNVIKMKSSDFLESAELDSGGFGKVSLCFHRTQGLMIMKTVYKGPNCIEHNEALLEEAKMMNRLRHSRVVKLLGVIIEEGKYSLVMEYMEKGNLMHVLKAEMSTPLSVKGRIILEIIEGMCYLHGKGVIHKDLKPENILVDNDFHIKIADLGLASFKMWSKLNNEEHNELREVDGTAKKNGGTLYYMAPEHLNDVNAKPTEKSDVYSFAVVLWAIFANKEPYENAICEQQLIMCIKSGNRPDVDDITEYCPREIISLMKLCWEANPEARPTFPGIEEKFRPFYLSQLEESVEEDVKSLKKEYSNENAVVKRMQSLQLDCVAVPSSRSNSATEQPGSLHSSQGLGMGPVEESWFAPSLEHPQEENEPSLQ
Method in brief: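 hRIPK1 (aa 1-375) fusion protein (3.6 μg/ml final) was preincubated 30 min at rt with compound (33300-1.69 nM, 1% DMSO), then 50 μM ATP was added for 240 min at rt. ADP from autophosphorylation was measured by ADP-Glo luminescence and curves fitted by nonlinear regression.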

[2] = test system: U937 cells; assay: Cellular assay in U937 cells: activity of RIPK1 inhibitors on TNFα/zVAD.fmk-induced cell death (necroptosis), CellTiter 96 AQueous (MTS) readout; assay type: cell-based; details: Homo sapiens, U-937
Method in brief: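 Necroptosis was measured by viable-cell MTS reduction (4 h, absorbance 490 nm) after overnight (18–24 h) 37° C culture. Cell suspensions of U937 cells carried TNFα (100 ng/ml) plus zVAD.fmk (50 μM) before compound was added. A 10-point curve (10 μM–0.26 nM or 1 μM–0.07 nM) was run in duplicate, normalised to the control lacking TNFα/zVAD.fmk.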

SMILES | IC50 [1] | IC50 [2]
Cc1nc2c(Cl)cc(C[C@H]3CC[C@H](C(=O)N4OCC[C@H]4c4cncc(F)c4)CC3)cn2n1 [compound 382, [4-[(8-chloro-2-methyl-[1,2,4]triazolo[1,5-a]pyridin-6-yl)methyl]cyclohexyl]-[(3S)-3-(5-fluoropyridin-3-yl)-1,2-oxazolidin-2-yl]methanone] | 26 nM | 8 nM
COc1cc(C[C@H]2CC[C@H](C(=O)N3OCC[C@H]3c3cncc(C)c3)CC2)cn2nc(C)nc12 [compound 383, trans-[4-[(8-methoxy-2-methyl-[1,2,4]triazolo[1,5-a]pyridin-6-yl)methyl]cyclohexyl]-[(3S)-3-(5-methylpyridin-3-yl)-1,2-oxazolidin-2-yl]methanone] | 81 nM | 47 nM
Cc1cnc([C@@H]2CCON2C(=O)[C@H]2CC[C@H](Cc3cc(C)ncc3F)CC2)cn1 [compound 384, trans-[4-[(5-fluoro-2-methylpyridin-4-yl)methyl]cyclohexyl]-[(3S)-3-(5-methylpyrazin-2-yl)-1,2-oxazolidin-2-yl]methanone] | 28 nM | 7 nM
Cc1cnc([C@@H]2CCON2C(=O)[C@H]2CC[C@H](Cc3cc(C)ncc3Cl)CC2)cn1 [compound 385, trans-[4-[(5-chloro-2-methylpyridin-4-yl)methyl]cyclohexyl]-[(3S)-3-(5-methylpyrazin-2-yl)-1,2-oxazolidin-2-yl]methanone] | 24 nM | 3 nM
Cc1ccc([C@@H]2CCON2C(=O)[C@H]2CC[C@H](Cc3cc(C)ncc3F)CC2)cn1 [compound 386, trans-[4-[(5-fluoro-2-methylpyridin-4-yl)methyl]cyclohexyl]-[(3S)-3-(6-methylpyridin-3-yl)-1,2-oxazolidin-2-yl]methanone] | 25 nM | 13 nM
Cc1ccc([C@@H]2CCON2C(=O)[C@H]2CC[C@H](Cc3ccc(C)nn3)CC2)cn1 [compound 387, trans-[4-[(6-methylpyridazin-3-yl)methyl]cyclohexyl]-[(3S)-3-(6-methylpyridin-3-yl)-1,2-oxazolidin-2-yl]methanone] | 995 nM | 1880 nM
Cc1ccc(C[C@H]2CC[C@H](C(=O)N3OCC[C@H]3c3cnc(C)c(F)c3)CC2)nn1 [compound 388, trans-[(3S)-3-(5-fluoro-6-methylpyridin-3-yl)-1,2-oxazolidin-2-yl]-[4-[(6-methylpyridazin-3-yl)methyl]cyclohexyl]methanone] | 97 nM | 176 nM
Cc1ccc([C@@H]2CCON2C(=O)[C@H]2CC[C@H](Cc3cc(C)ncc3Cl)CC2)cn1 [compound 389, trans-[4-[(5-chloro-2-methylpyridin-4-yl)methyl]cyclohexyl]-[(3S)-3-(6-methylpyridin-3-yl)-1,2-oxazolidin-2-yl]methanone] | 20 nM | 13 nM
Cc1ccc([C@@H]2CCON2C(=O)[C@H]2CC[C@H](Cc3ccc4nc(N)nn4c3)CC2)cn1 [compound 391, [4-[(2-amino-[1,2,4]triazolo[1,5-a]pyridin-6-yl)methyl]cyclohexyl]-[(3S)-3-(6-methylpyridin-3-yl)-1,2-oxazolidin-2-yl]methanone] | 63 nM | 64 nM
Cc1ncc([C@@H]2CCON2C(=O)[C@H]2CC[C@H](Cc3cc(F)c4ncnn4c3)CC2)cc1F [compound 392, trans-[(3S)-3-(5-fluoro-6-methylpyridin-3-yl)-1,2-oxazolidin-2-yl]-[4-[(8-fluoro-[1,2,4]triazolo[1,5-a]pyridin-6-yl)methyl]cyclohexyl]methanone] | 32 nM | 18 nM
Cc1ncc(C[C@H]2CC[C@H](C(=O)N3OCC[C@H]3c3cnc(C)c(F)c3)CC2)c(C)n1 [compound 393, [4-[(2,4-dimethylpyrimidin-5-yl)methyl]cyclohexyl]-[(3S)-3-(5-fluoro-6-methylpyridin-3-yl)-1,2-oxazolidin-2-yl]methanone] | 51 nM | 33 nM
Cc1cc(C[C@H]2CC[C@H](C(=O)N3OCC[C@H]3c3cnccn3)CC2)c(F)cn1 [compound 394, trans-[4-[(5-fluoro-2-methylpyridin-4-yl)methyl]cyclohexyl]-[(3S)-3-pyrazin-2-yl-1,2-oxazolidin-2-yl]methanone] | 14 nM | 5 nM
Cc1cnc([C@@H]2CCON2C(=O)[C@H]2CC[C@H](Cc3ccnn3C)CC2)cn1 [compound 395, trans-[(3S)-3-(5-methylpyrazin-2-yl)-1,2-oxazolidin-2-yl]-[4-[(2-methylpyrazol-3-yl)methyl]cyclohexyl]methanone] | 44 nM | 45 nM
Cc1cc(C[C@H]2CC[C@H](C(=O)N3OCC[C@H]3c3cnccn3)CC2)c(Cl)cn1 [compound 396, trans-[4-[(5-chloro-2-methylpyridin-4-yl)methyl]cyclohexyl]-[(3S)-3-pyrazin-2-yl-1,2-oxazolidin-2-yl]methanone] | 14 nM | 4 nM
Cc1ccc([C@@H]2CCON2C(=O)[C@H]2CC[C@H](Cc3ccnn3C)CC2)cn1 [compound 397, trans-[4-[(2-methylpyrazol-3-yl)methyl]cyclohexyl]-[(3S)-3-(6-methylpyridin-3-yl)-1,2-oxazolidin-2-yl]methanone] | 61 nM | 163 nM
Cc1cc(C[C@H]2CC[C@H](C(=O)N3OCC[C@H]3c3cnc(C)c(F)c3)CC2)cnn1 [compound 398, trans-[(3S)-3-(5-fluoro-6-methylpyridin-3-yl)-1,2-oxazolidin-2-yl]-[4-[(6-methylpyridazin-4-yl)methyl]cyclohexyl]methanone] | 64 nM | 182 nM
Cc1ncc(C[C@H]2CC[C@H](C(=O)N3OCC[C@H]3c3cnc(C)c(F)c3)CC2)c(C(F)(F)F)n1 [compound 399, [(3S)-3-(5-fluoro-6-methylpyridin-3-yl)-1,2-oxazolidin-2-yl]-[4-[[2-methyl-4-(trifluoromethyl)pyrimidin-5-yl]methyl]cyclohexyl]methanone] | 85 nM | 274 nM
Cc1ccc([C@@H]2CCON2C(=O)[C@]2(C)CC[C@@H](Cc3cc(C)c4nc(C)nn4c3)CC2)cn1 [compound 400, trans-[4-[(2,8-dimethyl-[1,2,4]triazolo[1,5-a]pyridin-6-yl)methyl]-1-methylcyclohexyl]-[(3S)-(6-methylpyridin-3-yl)-1,2-oxazolidin-2-yl]methanone] | 19 nM | 9 nM
Cc1nc2c(C)cc(C[C@H]3CC[C@@](C)(C(=O)N4OCC[C@H]4c4cnc(C)c(F)c4)CC3)cn2n1 [compound 402] | 2000 nM | 1130 nM
Cc1nc2c(C)cc(C[C@H]3CC[C@](C)(C(=O)N4OCC[C@H]4c4cnc(C)c(F)c4)CC3)cn2n1 [compound 403, trans-[4-[(2,8-dimethyl-[1,2,4]triazolo[1,5-a]pyridin-6-yl)methyl]-1-methylcyclohexyl]-[(3S)-3-(5-fluoro-6-methylpyridin-3-yl)-1,2-oxazolidin-2-yl]methanone] | 15 nM | 2 nM
Cc1ncc([C@@H]2CCON2C(=O)[C@H]2CC[C@H](Cc3ccnn3C)CC2)cc1F [compound 404, trans-[(3S)-3-(5-fluoro-6-methylpyridin-3-yl)-1,2-oxazolidin-2-yl]-[4-[(2-methylpyrazol-3-yl)methyl]cyclohexyl]methanone] | 15 nM | 22 nM
Cc1cnc([C@@H]2CCON2C(=O)[C@H]2CC[C@H](Cc3cc(C)c4ncnn4c3)CC2)cn1 [compound 409, trans-[(3S)-3-(5-methylpyrazin-2-yl)-1,2-oxazolidin-2-yl]-[4-[(8-methyl-[1,2,4]triazolo[1,5-a]pyridin-6-yl)methyl]cyclohexyl]methanone] | 46 nM | 66 nM
Cc1cncc([C@@H]2CCON2C(=O)[C@H]2CC[C@H](Cc3cc(C)c4nc(C)nn4c3)CC2)n1 [compound 411, trans-[4-[(2,8-dimethyl-[1,2,4]triazolo[1,5-a]pyridin-6-yl)methyl]cyclohexyl]-[(3S)-3-(6-methylpyrazin-2-yl)isoxazolidin-2-yl]methanone] | 48 nM | 36 nM
